Entries after “also recorded” stand apart in the source; their conditions may differ.
Columns and labels:
Lewis rats [1] = assay: Rat posterolateral intertransverse process spinal fusion L4-L5 (Example 6); type: in vivo; settings: Group 1: BBP 500 μg only, week 8
Experimental: All rats underwent post-operative radiography at 2, 4, 6, and 8 weeks. Manual spinal palpation was performed at 8 weeks, the time of sacrifice. Bone formation was assessed in histological sections stained with H&E.

male Swiss-Weber mice = assay: Mouse hindquarter (muscle pouch) ectopic bone formation assay, BBP; type: in vivo; settings: for Bone Area / Bone Mineral Content: densitometry
Experimental: Methods: The osteogenic activity of material was tested using male Swiss-Weber mice aged 8 to 10 weeks were used (Taconic Farms, Germantown, N.Y.). Prior to the assay, the BBP was solublized and lyophilized into 2 mg of atelocollagen. The dried material was placed in a #5 gelatin capsule and sterilized by exposure to chloroform vapor. To conduct the assay, mice were anesthetized using 1% isoflurane delivered in oxygen at 2 l/min through a small animal anesthesia machine (VetEquip, Pleasanton, Calif.). Animals were affixed to a surgery board and the fur over the hindquarters shaved. The skin was cleaned with 70% ethanol and a midline incision made over the spine adjacent to the hindquarters. Blunt dissection with scissors was used to expose the quadriceps muscle on one side. A small pouch was made in the muscle using the point of scissors and the #5 capsule containing the test material was inserted into the pouch. The skin was then closed with three 11 mm Michel surgical clips and the animal returned to its cage for monitoring.
After 21 days the animals were killed and the hindquarter removed. Radiological examination of the specimens was accomplished using a small parts X-Ray cabinet (Faxitron, Wheeling, Ill.). For quantization of bone formation, bone area and the bone mineral content (BMC) of an area of interest encompassing the site of ectopic bone formation was determined using a PIXImus2 small animal densitometer (GE Lunar, Madison, Wis.). Specimens were then placed in buffered formalin and submitted for routine processing for histological examination.

Lewis rats [2] = assay: Rat posterolateral intertransverse process spinal fusion L4-L5 (Example 8); type: in vivo; settings: for Histology, fused / Manual Palpation, fused: 8th week
Experimental: Methods: Posterolateral intertransverse process spinal fusion at L4-L5 was performed in five treatment groups of Lewis rats each, and collagen sponges (5×5×13 mm) were implanted into the surgical sites.
Each sponge was placed in a sterile microfuge tube and either a suspension of BBP (500 μg or 1000 μg) in water or sterile water alone was applied. The sponges were allowed to air dry in a tissue culture hood overnight and then placed at −70° C. for an hour and lyophilized overnight. The tubes (with small holes in the top to allow for lyophilization) were placed in autoclave pouches and sealed. The materials were then sterilized by exposure to chloroform vapor for at least 4 hours.
The posterolateral intertransverse process spinal fusion at L4-L5 in the rat is a well established procedure in our laboratory 13-17. Briefly, the animal was anesthetized with isofluane and the surgical site was shaved and propped with Betadyne and alcohol. A 3 cm longitudinal midline incision was made through the skin and subcutaneous tissue over L4-L5 down to the lumbodorsal fascia. Then, two separate 2 cm longitudinal paramedial incisions were made in the erector spinae muscles on both sides of L4-L5. The transverse processes of L4-L5 were exposed, cleaned of soft tissue, and decorticated with a high-speed burr. The site was irrigated with saline and the therapeutic test material was placed. The lumbodorsal fascia was closed with 4-0 Prolene (Ethicon, Somerville, N.J.). The skin was closed with 4-0 Prolene and meticulous post-operative care was provided.
These were compared to control groups. Fusion was evaluated by radiology, histology and manual palpation tests. Animals were sacrificed 8 weeks after surgery.
The results of the surgeries were assessed radiologically, histologically, and by manual palpation. Posteroanterior radiographs were obtained using a small parts X-ray cabinet (Faxitron Corp., Wheeling, Ill.) on each animal at 2, 4, 6 and 8 weeks. Radiograms were evaluated by three independent observers employing the following standardized scale: 0: no fusion; 1: incomplete fusion with bone formation present; and 2: complete fusion. The scores from the three observes were added and a total of 5 or 6 was regarded as “fused”. Manual palpation of the spine was performed at the time of sacrifice at 8 weeks. To simulate the gold standard for determining fusion in humans, exploration and manual palpation of the fusion mass were performed after death. The level fused was manually palpated with Adson forceps and compared with the adjacent nonfused levels. Each specimen was graded as fused or non-fused by three independent observers. The spine was designated as “not fused” if any of the three observers graded the spine as not fused. After manual palpation, the specimens were decalcified using standard 10% decalcifying solution HCl (Cal-Ex, Fisher Scientific, Fairlawn, N.J.), washed with running tap water, then transferred to 75% ethanol. Sagittal sections were cut carefully at the level of the transverse process. The specimens were imbedded in paraffin and sections of each specimen obtained. These sections were stained with hematoxylin and eosin. They were evaluated by an independent observer as fused and not fused.
The proportions of subjects in each group judged to be “fused” were compared in sequential two group comparisons with Fisher's exact test using SPSS software. A p score of less than or equal to 0.05 was set for statistical significance.

Lewis rats [3] = assay: Rat posterolateral intertransverse process spinal fusion L4-L5 (Example 7); type: in vivo; settings: week 8
Experimental: Methods: Five groups of 50 Lewis rats each underwent posterolateral intertransverse process spinal fusion at vertebrae L4-L5 with implanted: BBP (500 μg) (Group 1); BBP (1000 μg) (Group 2), collagen plus low dose BMP-2 (1 μg) (Group 3), BBP (500 μg) plus low dose BMP (1 μg) (Group 4) and BBP (1000 μg) plus low dose BMP (1 μg) (Group 5). Control groups included a negative group (decortication) and positive control group (collagen plus 3 μg BMP).
All rats underwent post-operative radiography at 2, 4, 6, and 8 weeks. Manual spinal palpation was performed at 8 weeks, after the time of sacrifice. Bone formation was assessed in histological sections stained with H&E.

rhBMP-2 [4] = molecular target: T1, rhBMP-2 (Homo sapiens, UniProt P12643); assay: Surface plasmon resonance, interaction of rhBMP-2 and BBP; type: binding; settings: BBP decyclized by prior reduction with β-mercaptoethanol
T1 sequence (P12643 283-396): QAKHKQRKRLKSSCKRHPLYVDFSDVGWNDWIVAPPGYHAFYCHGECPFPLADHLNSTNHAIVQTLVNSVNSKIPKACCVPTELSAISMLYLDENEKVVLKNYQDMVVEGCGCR
Experimental: Buffers and chips for the procedure were obtained from Biacore. […] This material was then attached to a CM-5 sensor chip using reagents and procedures supplied by the manufacturer. Running butter was 10 mM HEPES, pH 7.4, 150 mM NaCl, 3 mM EDTA, 0.005% Surfactant P20, The peptide was dissolved in running buffer at concentrations ranging from 1×10^−5 to 1×10^−4 M. Flow rates from 5 to 50 μl/mm and injection volumes of 20 to 100 μl were employed. The regeneration solution was […] glycine-HCl, pH 2.0.

rhBMP-2 [5] = molecular target: T1, rhBMP-2; assay: Residence time study: BBP and rhBMP-2 on collagen sponges in muscle pouches; type: in vivo, rodents
Description: Methods: Labeled rhBMP-2 was mixed with BBP or vehicle and applied to collagen sponges. The sponges were implanted into muscle pouches in rodents. At specified times (1, 3 and 7 days), the implants were removed and the amount of BMP remaining determined. Four animals were used in each group.

[6] = BBP 50 μg implanted with 5 μg rhBMP-2, 21 days
[7] = BBP 500 μg implanted with 5 μg rhBMP-2, 21 days

Structure (SMILES): CSCC[C@@H]1NC(=O)[C@H](CCCNC(=N)N)NC(=O)[C@H](C(C)C)NC(=O)[C@H]([C@@H](C)O)NC(=O)[C@H](CO)NC(=O)[C@H](CCCNC(=N)N)NC(=O)[C@@H](N)CSSC[C@@H](C(=O)O)NC(=O)[C@H](CCCNC(=N)N)NC(=O)[C@H](C(C)C)NC(=O)[C@H](Cc2c[nH]c3ccccc23)NC(=O)[C@H](C(C)C)NC(=O)[C@H](CC(N)=O)NC(=O)[C@H](CCC(N)=O)NC(=O)[C@H](C(C)C)NC(=O)[C@H](CCC(N)=O)NC(=O)[C@H](CCC(=O)O)NC(=O)[C@H](C)NC(=O)[C@H](CO)NC1=O [BBP]
- Fusion Rates (Lewis rats [1]): 14%
- calcification after implantation of BBP alone (male Swiss-Weber mice; 500 μg BBP in atelocollagen, mouse muscle, 21 days, radiogram/histology): induced calcification; also recorded: dystrophic calcification primarily associated with intramuscular adipose tissue; also recorded: ectopic dystrophic calcification formation
- amount of ectopic bone formed versus rhBMP-2 alone (male Swiss-Weber mice; 500 μg BBP with 5 μg rhBMP-2, densitometry): consistently greater
- Bone Area (male Swiss-Weber mice; [6]): 0.159 ± 0.0606 cm^2
- Bone Mineral Content (male Swiss-Weber mice; [6]): 0.00388 ± 0.0017 g
- Bone Area (male Swiss-Weber mice; [7]): 0.226 ± 0.0270 cm^2
- Bone Mineral Content (male Swiss-Weber mice; [7]): 0.00528 ± 0.00068 g
- fusion with BBP alone (Lewis rats [2]; 500 μg or 1000 μg BBP alone, any time point): none of the animals in low and high dose BBP groups developed fusion at any time points; also recorded: did not provide fusion
- radiological examination, fused, Week 2nd (Lewis rats [2]; high dose BBP only (1000 μg)): 0%
- radiological examination, fused, Week 4th (Lewis rats [2]; high dose BBP only (1000 μg)): 0%
- radiological examination, fused, Week 6th (Lewis rats [2]; high dose BBP only (1000 μg)): 0%
- radiological examination, fused, Week 8th (Lewis rats [2]; high dose BBP only (1000 μg)): 0%
- Histology, fused (Lewis rats [2]; high dose BBP only (1000 μg)): 0%
- Manual Palpation, fused (Lewis rats [2]; high dose BBP only (1000 μg)): 0%
- radiological examination, fused, Week 2nd (Lewis rats [2]; low dose BBP only (500 μg)): 0%
- radiological examination, fused, Week 4th (Lewis rats [2]; low dose BBP only (500 μg)): 0%
- radiological examination, fused, Week 6th (Lewis rats [2]; low dose BBP only (500 μg)): 0%
- radiological examination, fused, Week 8th (Lewis rats [2]; low dose BBP only (500 μg)): 0%
- Histology, fused (Lewis rats [2]; low dose BBP only (500 μg)): 0%
- Manual Palpation, fused (Lewis rats [2]; low dose BBP only (500 μg)): 0%
- fusion by manual palpation (Lewis rats [3]; Group 1: BBP 500 μg only): 0%
- fusion by manual palpation (Lewis rats [3]; Group 2: BBP 1000 μg only): 0%
- binding to rhBMP-2 (rhBMP-2 [4]): no significant binding
- increase of rhBMP-2 retention (factor) (rhBMP-2 [5]; collagen sponges in muscle pouches, 1, 3 and 7 days, versus vehicle): about two
- retention of rhBMP-2 (fold) (rhBMP-2 [5]; for up to seven days in vitro and in vivo): two

Source: US9610320B2, “Surgical applications for BMP binding protein” (THE REGENTS OF THE UNIVERSITY OF CALIFORNIA, priority 2004, dated 2017)
